In patent publication US20240228647A1, “OFATUMUMAB FOR TREATING MULTIPLE SCLEROSIS IN ASIAN PATIENTS” (Novartis AG, priority 2021, published 2024):

Assays:
serum Ig levels = details: cited from earlier work
patients with RMS = format: in vivo, human; details: human, in vivo
Experimental: Ofatumumab was investigated in 1882 patients with RMS from two identical Phase III randomized, double-blind, double-dummy, active-comparator controlled, parallel-group, multicenter studies of identical design (Study I and Study II). Patients were randomized to receive either ofatumumab, OMB (20 mg s.c injections every 4 weeks, after an initial loading regimen of 3 injections on Day 1, 7, and 14), or teriflunomide, TER (14 mg p.o. once a day) as active comparator. For brevity, the teriflunomide data are not shown hereinafter.
The maximum treatment duration for an individual patient was 30 study months (approximately 2.5 years). The two studies included a total of 71 patients of Asian race (36 patients in ofatumumab and 35 patients in teriflunomide treatment groups). This Example also includes the Asian patients data from oncology studies (Study A and Study B), as supportive data, where required.
For the safety analyses of this report, non-serious treatment emergent adverse events (TEAEs) up to and including safety cut-off (i.e. 100 days after last study drug administration) and serious TEAEs regardless of the safety cutoff were considered (if reported prior to the data cut-off of Studies I and II). Common terminology criteria for adverse events (CTCAE) grading was used to record the severity of each AE. The latest version of CTCAE available at the time of TEAE reporting was used. […] The three most frequently reported AEs by SOC were ‘General disorders and administration site conditions’ ‘Infections and infestations’ and ‘Injury, poisoning and procedural complications’ in the Asian and ROW subgroups by race (Table 7). […] In the Asian subgroup, 1 patient experienced SAEs of urinary tract infections, urosepsis and testicular infarction in the ofatumumab group and 1 patient reported an SAE of nephrolithiasis in the teriflunomide group (Table 8). Due to the small number of Asian patients by race and region, results should be interpreted with caution.
AEs of special interest were summarized by risk name, PT and treatment. Furthermore, the incidence of any AE that fulfilled the search terms as defined in eCRS were summarized by risk name, level, and maximum CTCAE grade. In this section, AESIs are first described for subgroups by race and then by region. […] The definitions of AEs of special interest correspond to the identified or potential risks for ofatumumab and its class of drug as well as those for the comparator (teriflunomide). AESIs, based on the safety profiles of ofatumumab, comparator, and other anti-CD20 mABs are: • Injection-related reactions including injection-systemic reaction and injection-site • reactions • Infections, including opportunistic infections, HBV infection reactivation and PML • Malignant and premalignant disorders • Hepatic Safety • Neutropenia

serum IgG and IgM levels = details: cited from earlier work

Molecule: ocrelizumab
- Reduction of IgG levels (serum Ig levels; after two years (96 weeks), FIG. 6): approx. 5%
- Reduction in serum Ig levels, approximate mean rate per year (serum Ig levels; per year, over 5.5 years): 3-4%

Molecule: C/C(O)=C(\C#N)C(=O)Nc1ccc(C(F)(F)F)cc1 [teriflunomide]
- AE by PT: alopecia, % (patients with RMS): 15.3%
- AE by PT: alopecia, patients (patients with RMS): 138
- AE by PT: nasopharyngitis, % (patients with RMS): 17.2%
- AE by PT: nasopharyngitis, patients (patients with RMS): 155
- AE by PT: pyrexia, % (patients with RMS): 14.3%
- AE by PT: pyrexia, patients (patients with RMS): 5
- AE by PT: upper respiratory tract infection, % (patients with RMS): 5.7%
- AE by PT: upper respiratory tract infection, patients (patients with RMS): 2
- Patients who experienced at least 1 AE, % (patients with RMS): 84.2%
- SAE by PT: Appendicitis, % (patients with RMS): 0.2%
- SAE by PT: Appendicitis, patients (patients with RMS): 2
- Serious TEAE: Infections and infestations, % (patients with RMS): 1.9%

Molecule: rituximab [RTX]
- Decrease of IgM levels in serum per year (serum IgG and IgM levels): 5.0%
